Columns and labels:
[1] = system: antibodies in sera from SARS patients (sera 1a, 1b, 2, 6, 37, 62, London, SARS-yellow, SARS-green); assay type: binding, human; design: Binding of serum 6 to linear peptides of protein X1 of SARS-CoV Urbani / Binding of serum 37 to linear peptides of protein X1 of SARS-CoV Urbani / Binding of serum 6 to looped/cyclic peptide (PEPSCAN-ELISA) / Binding of serum 37 to looped/cyclic peptide (PEPSCAN-ELISA) / Binding of serum 37 to looped/cyclic peptides of protein X1 of SARS-CoV Urbani / Binding of serum 6 to linear peptides of protein X2 / Binding of serum 37 to linear peptides of protein X2 / Binding of serum 37 to looped/cyclic peptides of protein X2 of SARS-CoV Urbani / Binding of serum 6 to linear peptides of protein M of SARS-CoV Urbani / Binding of serum 37 to linear peptides of protein M of SARS-CoV Urbani / Binding of serum 6 to looped/cyclic peptides of protein M of SARS-CoV Urbani / Binding of serum 37 to looped/cyclic peptides of protein M of SARS-CoV Urbani / Binding of serum 6 to linear peptides of protein X3 of SARS-CoV Urbani / Binding of serum 37 to linear peptides of protein X3 of SARS-CoV Urbani / Binding of serum 37 to looped/cyclic peptides of protein X3 of SARS-CoV Urbani / Binding of serum 6 to linear peptides of protein X4 of SARS-CoV Urbani / Binding of serum 37 to linear peptides of protein X4 of SARS-CoV Urbani / Binding of serum 37 to looped/cyclic peptides of protein X4 of SARS-CoV Urbani / Binding of serum 6 to linear peptides of protein X5 of SARS-CoV Urbani / Binding of serum 37 to linear peptides of protein X5 of SARS-CoV Urbani / Binding of serum 37 to looped/cyclic peptides of protein X5 of SARS-CoV Urbani / Binding of serum 6 to linear peptides of protein N of SARS-CoV Urbani / Binding of serum 37 to linear peptides of protein N of SARS-CoV Urbani / Binding of serum 6 to linear peptide (PEPSCAN-ELISA) / Binding of serum 1a to looped/cyclic peptides of protein N of SARS-CoV Urbani / Binding of serum 1b to looped/cyclic peptides of protein N of SARS-CoV Urbani / Binding of serum 2 to looped/cyclic peptides of protein N of SARS-CoV Urbani / Binding of serum 6 to looped/cyclic peptides of protein N of SARS-CoV Urbani / Binding of serum 37 to looped/cyclic peptides of protein N of SARS-CoV Urbani / Binding of serum 62 to looped/cyclic peptides of protein N of SARS-CoV Urbani / Binding of serum London to looped/cyclic peptides of protein N of SARS-CoV Urbani / Binding of serum SARS-green to looped/cyclic peptides of protein N of SARS-CoV Urbani: unit not given here
[2] = system: control sera (pooled serum of ten healthy LUMC hospital workers; commercial negative donor pooled serum from the Dutch bloodbank); assay type: binding, human; design: Binding of Control serum LUMC to linear peptides / Binding of Control serum Blood-bank to linear peptides / Binding of Control serum LUMC to looped peptides / Binding of Control Serum Blood-Bank to Looped peptides / Binding of Control serum LUMC to linear peptides of the protein M of SARS-CoV Urbani / Binding of Control serum Blood-bank to linear peptides of the protein M of SARS-CoV Urbani / Binding of Control serum LUMC to looped peptides of the protein M of SARS-CoV Urbani / Binding of Control Serum Blood-Bank to Looped peptides of the protein M of SARS-CoV Urbani: unit not given here
[3] = system: rabbit serum obtained by immunizing a rabbit with the SARS-CoV strain Frankfurt 1; assay type: binding; design: Binding of a rabbit serum to linear peptides / Binding of a rabbit serum to looped peptides / Rabbit serum linear peptides / Rabbit serum looped peptides / Binding of a rabbit serum to linear peptides of protein N of SARS-CoV Urbani (Rabbit serum linear peptides) / Binding of a rabbit serum to looped/cyclic peptides of protein N of SARS-CoV Urbani (Rabbit serum looped peptides): unit not given here

Sequence: DTIVVTEGDGISTPK
- Binding of serum 1a to linear peptides of protein X1 of SARS-CoV Urbani [1]: 0.5
- Binding of serum 1a to looped/cyclic peptides of protein X1 of SARS-CoV Urbani [1]: 0.3
- Binding of serum 1b to linear peptides of protein X1 of SARS-CoV Urbani [1]: 0.4
- Binding of serum 1b to looped/cyclic peptides of protein X1 of SARS-CoV Urbani [1]: 0.2
- Binding of serum 2 to linear peptides of protein X1 of SARS-CoV Urbani [1]: 0.3
- Binding of serum 2 to looped/cyclic peptides of protein X1 of SARS-CoV Urbani [1]: 0.1
- Binding of serum 6 to linear peptides of protein X1 of SARS-CoV Urbani [1]: 0.4
- Binding of serum 6 to looped/cyclic peptides of protein X1 of SARS-CoV Urbani [1]: 0.2
- Binding of serum 37 to linear peptides of protein X1 of SARS-CoV Urbani [1]: 0.4
- Binding of serum 37 to looped/cyclic peptides of protein X1 of SARS-CoV Urbani [1]: 0.3
- Binding of serum 62 to linear peptides of protein X1 of SARS-CoV Urbani [1]: 0.3
- Binding of serum 62 to looped/cyclic peptides of protein X1 of SARS-CoV Urbani [1]: 0.3
- Binding of serum London to linear peptides of protein X1 of SARS-CoV Urbani [1]: 0.2
- Binding of serum London to looped/cyclic peptides of protein X1 of SARS-CoV Urbani [1]: 0.2
- Binding of serum SARS-green to linear peptides of protein X1 of SARS-CoV Urbani [1]: 0.2
- Binding of serum SARS-green to looped/cyclic peptides of protein X1 of SARS-CoV Urbani [1]: 0.1
- Binding of serum SARS-yellow to linear peptides of protein X1 of SARS-CoV Urbani [1]: 0.1
- Binding of serum SARS-yellow to looped/cyclic peptides of protein X1 of SARS-CoV Urbani [1]: 0.1
- Binding of Control Serum Blood-Bank to Looped peptides [2]: 0.4
- Binding of Control serum Blood-bank to linear peptides [2]: 0.4
- Binding of Control serum LUMC to linear peptides [2]: 0.3
- Binding of Control serum LUMC to looped peptides [2]: 0.3
- Binding of a rabbit serum to linear peptides [3]: 0.1
- Binding of a rabbit serum to looped peptides [3]: 0.5

Sequence: WLCWKCKSKNPLLYD
- Binding of serum 1a to looped/cyclic peptide (PEPSCAN-ELISA) [1]: 0.8
- Binding of serum 1b to looped/cyclic peptide (PEPSCAN-ELISA) [1]: 0.6
- Binding of serum 2 to looped/cyclic peptide (PEPSCAN-ELISA) [1]: 0.6
- Binding of serum 6 to looped/cyclic peptide (PEPSCAN-ELISA) [1]: 0.6
- Binding of serum 37 to looped/cyclic peptide (PEPSCAN-ELISA) [1]: 0.9
- Binding of serum 62 to looped/cyclic peptide (PEPSCAN-ELISA) [1]: 0.7
- Binding of serum London to looped/cyclic peptide (PEPSCAN-ELISA) [1]: 0.3
- Binding of serum SARS-green to looped/cyclic peptide (PEPSCAN-ELISA) [1]: 0.4
- Binding of serum SARS-yellow to looped/cyclic peptide (PEPSCAN-ELISA) [1]: 0.6
- Recognition of the peptide by sera of SARS-CoV infected individuals, and form (linear, looped/cyclic) in which it is recognized [1]: recognized in linear form
- Binding of Control Serum Blood-Bank to Looped peptides [2]: 0.7
- Binding of Control serum Blood-bank to linear peptides [2]: 0.6
- Binding of Control serum LUMC to linear peptides [2]: 0.7
- Binding of Control serum LUMC to looped peptides [2]: 0.8
- Binding of a rabbit serum to linear peptides [3]: 0.2
- Binding of a rabbit serum to looped peptides [3]: 0.6

Sequence: IVFTSCELYHYQECV
- Binding of serum 1a to linear peptides of protein X4 of SARS-CoV Urbani [1]: 0.8
- Binding of serum 1a to looped/cyclic peptides of protein X4 of SARS-CoV Urbani [1]: 0.9
- Binding of serum 1b to linear peptides of protein X4 of SARS-CoV Urbani [1]: 0.9
- Binding of serum 1b to looped/cyclic peptides of protein X4 of SARS-CoV Urbani [1]: 0.8
- Binding of serum 2 to linear peptides of protein X4 of SARS-CoV Urbani [1]: 0.6
- Binding of serum 2 to looped/cyclic peptides of protein X4 of SARS-CoV Urbani [1]: 0.8
- Binding of serum 6 to linear peptides of protein X4 of SARS-CoV Urbani [1]: 0.8
- Binding of serum 6 to looped/cyclic peptides of protein X4 of SARS-CoV Urbani [1]: 0.6
- Binding of serum 37 to linear peptides of protein X4 of SARS-CoV Urbani [1]: 1.0
- Binding of serum 37 to looped/cyclic peptides of protein X4 of SARS-CoV Urbani [1]: 1.0
- Binding of serum 62 to linear peptides of protein X4 of SARS-CoV Urbani [1]: 1.0
- Binding of serum 62 to looped/cyclic peptides of protein X4 of SARS-CoV Urbani [1]: 0.8
- Binding of serum London to linear peptides of protein X4 of SARS-CoV Urbani [1]: 0.8
- Binding of serum London to looped/cyclic peptides of protein X4 of SARS-CoV Urbani [1]: 0.3
- Binding of serum SARS-green to linear peptides of protein X4 of SARS-CoV Urbani [1]: 0.9
- Binding of serum SARS-green to looped/cyclic peptides of protein X4 of SARS-CoV Urbani [1]: 0.8
- Binding of serum SARS-yellow to linear peptides of protein X4 of SARS-CoV Urbani [1]: 0.4
- Binding of serum SARS-yellow to looped/cyclic peptides of protein X4 of SARS-CoV Urbani [1]: 0.6
- Binding of Control Serum Blood-Bank to Looped peptides [2]: 0.8
- Binding of Control serum Blood-bank to linear peptides [2]: 0.8
- Binding of Control serum LUMC to linear peptides [2]: 0.8
- Binding of Control serum LUMC to looped peptides [2]: 0.9
- Rabbit serum linear peptides [3]: 0.4
- Rabbit serum looped peptides [3]: 0.4
